We go through four molecules from patent publication US20040042961A1, “Development of an in vivo functional assay for proteases” (priority 2002, published 2004).

“Also recorded” adds a separate entry of the source. Residues, ends and D or L forms follow the SMILES beside them. *: point of attachment. Cbz = O=C(OCc1ccccc1)*; CHN2 = [N-]=[N+]=C*; CH2F = FC*

The target of one series is T1, caspase 8 (Homo sapiens, UniProt Q14790).
T1 construct: endogenous in cells; host or cells: Jurkat-rtTA cells
Kind of series: Cell-based assay for caspase 8 in Jurkat cells (GFP double mutant, anti-Fas Ab, guanidine-HCl). The source says:
Two factors are particularly important for the successful conversion of GFP into a preferred protease substrate: (i) the cleavage of the accessible substrate recognition sequence and (ii) the susceptibility of the cleaved GFP relative to the intact (non-cleaved) GFP towards unfolding. In the present work, it was preferred to introduce two cleavage sites in order to sufficiently destabilize GFP so that rapid unfolding could be observed at pH 5.5 in vitro. This is represented by a Scheme in FIG. 6. FIG. 6 is a graphical depiction of fluorescence as a function of the duration of exposure to guanidine-HCl. The assay was performed in Jurkat cells, using an anti-Fas Ab for caspase 8 activation. The assay is run in a 96-well plate format, using the Cytofluor plate reader. […] Without addition of Guanidine-HCl, no change in fluorescence was observed. However, a functional cellular assay (i.e. with a fluorescence readout) was obtained by incubating the cells with the denaturing agent Guanidine-HCl prior to analysis.
Without addition of Guanidine-HCl, no change in fluorescence is observed. However, a functional cellular assay (i.e. with a fluorescence readout) was obtained by incubating the cells with the denaturing agent Guanidine-HCl prior to analysis (FIG. 6).
The assay was performed in Jurkat cells and the GFP substrate was delivered by means of transient transfection. […]

In series [1] the target is T2, non-active preprocathepsin L (C25A) mutant (Homo sapiens, UniProt P07711, C138A).
T2 construct: The C-terminus of the full length human preprocathepsin L is fused in frame to the N-terminus of GFP; GFP (Aequorea victoria, F64L/S65C/I167T/K238N) via BglII-NheI linker (C); expressed in transfected cells
Kind of series: Control, mutant preprocathepsin L-GFP (C25A) in HeLa-rtTA cells, FACS. In kind it is cell-based. The conditions noted are these: inactive cathepsin L (C25A), up to 35 μM inhibitor, 48 h. The protocol:
(§1) A potent cathepsin L irreversible inhibitor, Cbz-LeuLeuTyr-CHN2, was also used in this experiment. To induce cathepsin L-GFP expression, the cells were cultured in the presence of doxycycline for 48 h. […] Fluorescence that corresponds to GFP, however, is found in the peaks at higher fluorescence levels (FIGS. 13B,C). This can be observed in all cell populations expressing GFP. […] In the absence of inhibitor, the active enzyme hydrolyzes most of the GFP substrate, resulting in low fluorescence levels. […] It must be noted also that the low level of cellular fluorescence increases slightly in presence of the inhibitor, possibly due to effects on cellular events.
(§2) FIG. 13 Characterization of GFP fluorescence by FACS analysis. Expression of GFP fusion proteins was induced in the presence or absence of Z-Leu-Leu-Tyr-CHN2 inhibitor for 48 h, and the fluorescence was measured by FACS . Panel A. The fluorescence histograms of non-30 transfected HeLa-rtTA cells, cultured in absence (shaded) or in presence of 35 μM inhibitor (superimposed). A shift of the superimposed histogram depicts an increase of the background fluorescence in response to the inhibitor (see text for more details). Panel B. The fluorescence histograms of cells expressing the mutant preprocathepsin L-GFP (C25A) fusion protein, grown in absence (shaded) and in presence (superimposed) of 35 μM inhibitor. Panel C. […]

The target of series [2] is T3, cathepsin L (Homo sapiens, UniProt P07711).
T3 construct: The C-terminus of the full length human preprocathepsin L is fused in frame to the N-terminus of GFP; GFP (Aequorea victoria, F64L/S65C/I167T/K238N) via BglII-NheI linker (C); expressed in transfected cells
T3 sequence (P07711 18-333 limits assumed): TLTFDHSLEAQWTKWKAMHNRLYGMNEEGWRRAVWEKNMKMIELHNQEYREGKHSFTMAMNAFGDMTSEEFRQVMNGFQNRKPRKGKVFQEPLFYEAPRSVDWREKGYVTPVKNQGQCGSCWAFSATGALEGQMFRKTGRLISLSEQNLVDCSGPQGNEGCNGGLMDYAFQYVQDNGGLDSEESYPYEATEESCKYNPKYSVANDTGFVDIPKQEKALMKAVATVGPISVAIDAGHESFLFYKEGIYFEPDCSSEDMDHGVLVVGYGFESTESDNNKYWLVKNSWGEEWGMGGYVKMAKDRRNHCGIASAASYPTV
Kind of series: Intracellular cathepsin L assay, wild type preprocathepsin L-GFP in HeLa-rtTA cells, 96-well plate reader. In kind it is cell-based. The conditions noted are these: 48 h; for Effect on overall level of GFP fluorescence: 0-60 μM. The protocol: (§3) Adaptation of the assay to a 96-well plate format—The intracellular assay was performed in a 96-well microplate format using a plate reader to monitor GFP fluorescence. Three different inhibitors were used for the plate assay: Cbz-LeuLeuTyr-CHN2, Cbz-LeuLeuTyr-CH2F and E-64. These compounds are all irreversible inhibitors of cysteine proteases. Prior to measuring the fluorescence, the stably transfected pools of HeLa-rtTA cells were induced with doxycycline and cultured in presence of various concentrations of the inhibitors for 48 h.
(§4) FIG. 15 Adaptation of the intracellular assay to a high-throughput screening format. The assay was carried out in a 96-well microplate and fluorescence was measured using the Cytofluor. The expression of GFP fusion proteins was induced for 48 h in the presence of several inhibitors. Cell viability was determined using the MTT dye reduction assay. The average of triplicate values and the standard deviation for fluorescence and cell viability were expressed as a function of inhibitor concentration. Panel A. Relative fluorescence (fold/control) of cells expressing the wild-type preprocathepsin L-GFP fusion protein treated with various inhibitors. Panel B. The relative fluorescence of cells expressing the mutant preprocathepsin L-GFP (C25A) fusion protein in response to treatment with several inhibitors. Panel C. Percentage of viable cells expressing the wild type fusion protein after treatment with inhibitors. […]
Proteolytic Assays—For in vitro assays, purified GFP-His protein (100 μg) was incubated with 400 nM cathepsin L for 4.5 h. Aliquots were analyzed periodically to monitor the fluorescence using a CytoFluor plate reader (PerSeptive Biosystems, Framingham, Mass.) with cut-off filters of 488 nm (excitation) and […] (emission). […] For cell-based assays, stably transfected HeLa cells (stable pools) of either wild type cathepsin L-GFP or mutant cathepsin L-GFP fusions were grown in presence or absence of cathepsin inhibitors, and GFP fluorescence was monitored with various detection methods. […] Cells from one set of plates were harvested by trypsinization, resuspended in PBS, and GFP fluorescence was subsequently determined with flow cytometry. […] The cells were grown for an additional 24 h and GFP fluorescence was measured as described above. For detection with the CytoFluor plate reader, cells (400,000 cells/ml) in a total volume of 250 μl per well, were cultured in 96-well microplates. […] After the removal of medium, 200 μl of PBS was added to each well and the plates were scanned to monitor GFP fluorescence. Background fluorescence was determined from negative control cells (-doxycycline), and was subtracted from the fluorescence values obtained from induced cells that were cultured with various concentrations of inhibitors.

In series [3] the target is T3, cathepsin L. Kind of series: Intracellular cathepsin L assay, wild type preprocathepsin L-GFP in HeLa-rtTA cells, FACS. The conditions noted are these: 48 h. The class given is cell-based. The protocol:
as §1, §2

In series [4] the target is T2, non-active preprocathepsin L (C25A) mutant. Kind of series: Control, mutant preprocathepsin L-GFP (C25A) in HeLa-rtTA cells, 96-well plate reader. In kind it is cell-based. To be noted: 0-60 μM, 48 h. As to the method:
as §3
as §4, with “C.” for “C. Percentage of viable cells expressing the wild type fusion protein after treatment with inhibitors.”

For a further series, the system named is HeLa-rtTA cells. Briefly: Cell viability, MTT dye reduction assay. To be noted: 48 h; for Effect on cell viability: 0-60 μM, wild type and mutant fusion cells; for Cell viability: 60 μM. In kind it is cell-based. As to the method:
FIG. 15 Adaptation of the intracellular assay to a high-throughput screening format. The assay was carried out in a 96-well microplate and fluorescence was measured using the Cytofluor. The expression of GFP fusion proteins was induced for 48 h in the presence of several inhibitors. Cell viability was determined using the MTT dye reduction assay. The average of triplicate values and the standard deviation for fluorescence and cell viability were expressed as a function of inhibitor concentration. Panel A. Relative fluorescence (fold/control) of cells expressing the wild-type preprocathepsin L-GFP fusion protein treated with various inhibitors. Panel B. The relative fluorescence of cells expressing the mutant preprocathepsin L-GFP (C25A) fusion protein in response to treatment with several inhibitors. Panel C. Percentage of viable cells expressing the wild type fusion protein after treatment with inhibitors. Panel D. The percentage of viable cells expressing the mutant fusion protein as described in Panel C.
Cell Viability Assay—The number of viable cells was evaluated by the MTT dye reduction assay with modification (24). In the presence of various concentrations of inhibitors, cells were grown in 96-well plates for 48 h. MTT reagent was then added to a final concentration of 0.5 mg/ml, and incubation at 37° C. in 5% CO2 was continued for 4 h. The resulting insoluble formazan crystals were solubilized by resuspending the cells in 100 μl of DMSO per well. Absorbance of converted dye was measured at 550/690 nm on SpectraMAX 250 (Molecular Devices). Assay values obtained from control cells were taken as 100%.
A general note: Tetrazolium assays rely on reduction of a dye to a coloured formazan, in cell work by metabolically active cells.

T2 sequence (P07711 114-333 C138A): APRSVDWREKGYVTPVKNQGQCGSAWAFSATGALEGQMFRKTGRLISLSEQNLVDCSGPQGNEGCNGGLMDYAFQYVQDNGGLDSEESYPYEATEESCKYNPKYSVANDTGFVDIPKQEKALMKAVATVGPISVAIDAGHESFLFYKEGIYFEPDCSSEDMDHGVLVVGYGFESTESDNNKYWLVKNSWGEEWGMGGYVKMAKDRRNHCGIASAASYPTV
T1 sequence (Q14790 217-374 limits assumed): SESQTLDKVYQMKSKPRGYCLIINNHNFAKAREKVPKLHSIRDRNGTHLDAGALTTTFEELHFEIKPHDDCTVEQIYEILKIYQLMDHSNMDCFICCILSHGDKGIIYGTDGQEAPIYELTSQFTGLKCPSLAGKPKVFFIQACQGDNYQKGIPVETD
T1 sequence (Q14790 385-479 limits assumed): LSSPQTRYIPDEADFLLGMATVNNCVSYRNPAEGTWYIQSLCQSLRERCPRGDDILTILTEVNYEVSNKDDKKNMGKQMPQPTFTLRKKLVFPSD

`COC(=O)C[C@H](NC(=O)[C@H](C)NC(=O)[C@@H](NC(=O)OCc1ccccc1)C(C)C)C(=O)CF` [Z-VAD-FMK] (Cbz-Val-Ala-Asp(OMe)-CH2F): on caspase 8 (Fas-dependent hydrolysis of GFP, guanidine-HCl before reading), the “Response of fluorescence with inhibitor concentration” value is given as “dose-dependent response”. At caspase 8 (Jurkat-rtTA cells, Western with polyclonal anti-GFP Ab), the “Hydrolysis of GFP mutant in response to Fas-induced apoptosis” value is given as “inhibited”.

For the molecule `CC(C)C[C@H](NC(=O)OCc1ccccc1)C(=O)N[C@@H](CC(C)C)C(=O)N[C@@H](Cc1ccc(O)cc1)C(=O)C=[N+]=[N-]` [Cbz-LeuLeuTyr-CHN2] (Cbz-Leu-Leu-Tyr-CHN2), the GFP fluorescence entry in series [1] is reported as “virtually no change; also recorded: remained unchanged”; at cathepsin L [3] (35 μM inhibitor, doxycycline), “significant increase”. Also, at cathepsin L [2], the “Effect on overall level of GFP fluorescence” value (“Effect on overall level” below) is “dose-dependent increase”. Moreover, the “Fluorescence increase relative to control cells without inhibitor” value at cathepsin L [2] (60 μM) amounted to 20 fold. Besides, the “Increase of fluorescence (fluorescence index)” value at cathepsin L [3] (inhibitor concentration increased from 0 to 35 μM) was “up to 5 fold”. Also, in series [4], the “Fluorescence of cells expressing mutant non-active fusion protein” value is on record as “small increase”. The “Effect on cell viability” value with HeLa-rtTA cells is on record as “inversely proportional to the inhibitor concentration”. The Cell viability result in the series on HeLa-rtTA cells was “approximately 50%”.

Turning to `CC(C)C[C@H](NC(=O)OCc1ccccc1)C(=O)N[C@@H](CC(C)C)C(=O)N[C@@H](Cc1ccc(O)cc1)C(=O)CF` [Cbz-LeuLeuTyr-CH2F] (Cbz-Leu-Leu-Tyr-CH2F), at cathepsin L [2], the “Effect on overall level” value is given as “no significant effect”. In the series with HeLa-rtTA cells, the “Effect on cell viability” value was “inversely proportional to the inhibitor concentration” and the Cell viability entry was “approximately 50%”.

Consider `CC(C)C[C@H](NC(=O)[C@H]1O[C@@H]1C(=O)O)C(=O)NCCCCN=C(N)N` (relative stereo) [E-64, N-[N-(L-3-trans-carboxyoxirane-2-carbonyl)-L-leucyl]amino-4-guanidinobutane], for which the “Effect on overall level” value at cathepsin L [2] is reported as “no significant effect”. For the same molecule, in the series with HeLa-rtTA cells, the “Effect on cell viability” value is “Almost no effect”.
